{
  "source": "paper PMC10703426",
  "about": "“New characterization of dihydroergotamine receptor pharmacology in the context of migraine: utilization of a β-arrestin recruitment assay” (Frontiers in Neurology, 2023)",
  "key": {"human 5-HT3 receptor": {"molecular_target": "T1, human 5-HT3 receptor (Homo sapiens, UniProt P46098)", "T1 construct": "host or cells: HEK-293", "T1 sequence (P46098 24-478)": "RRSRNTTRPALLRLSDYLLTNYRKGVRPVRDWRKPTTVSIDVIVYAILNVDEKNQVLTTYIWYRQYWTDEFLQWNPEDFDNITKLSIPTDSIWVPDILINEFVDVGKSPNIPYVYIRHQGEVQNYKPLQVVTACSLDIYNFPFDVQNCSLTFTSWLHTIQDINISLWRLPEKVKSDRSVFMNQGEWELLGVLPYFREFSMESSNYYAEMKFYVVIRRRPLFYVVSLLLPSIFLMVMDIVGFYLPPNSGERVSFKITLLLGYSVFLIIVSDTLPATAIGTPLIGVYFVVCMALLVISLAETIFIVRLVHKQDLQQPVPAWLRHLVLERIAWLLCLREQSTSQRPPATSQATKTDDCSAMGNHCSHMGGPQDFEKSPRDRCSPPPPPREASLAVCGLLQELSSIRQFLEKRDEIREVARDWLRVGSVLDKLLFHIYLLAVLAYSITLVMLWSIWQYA", "test": "Radioligand competition binding, [3H]GR-65630, HEK-293 cell membranes", "description": "Nonspecific binding was determined in the presence of 10 μM MDL 72222. Following incubation, the samples were filtered rapidly under vacuum through glass fiber filters (GF/B, Packard; Kennesaw, GA) presoaked with 0.3% polyethyleneimine and rinsed several times with ice-cold 50 mM Tris–HCl using a 96-sample cell harvester (UniFilter, Packard). The filters were dried and then counted for radioactivity in a scintillation counter (TopCount, Packard) using a scintillation cocktail (MicroScint 0, Packard). Results are expressed as percent inhibition of the control radioligand–specific binding. The standard reference compound was MDL 72222, which was tested in each experiment at several concentrations to obtain a competition curve from which its half-maximal inhibitory concentration (IC50) was calculated."}, "human 5-HT4E receptor": {"molecular_target": "T2, human 5-HT4E receptor (Homo sapiens, UniProt Q13639)", "T2 construct": "host or cells: CHO", "T2 sequence (Q13639 1-378 isoform Q13639-5)": "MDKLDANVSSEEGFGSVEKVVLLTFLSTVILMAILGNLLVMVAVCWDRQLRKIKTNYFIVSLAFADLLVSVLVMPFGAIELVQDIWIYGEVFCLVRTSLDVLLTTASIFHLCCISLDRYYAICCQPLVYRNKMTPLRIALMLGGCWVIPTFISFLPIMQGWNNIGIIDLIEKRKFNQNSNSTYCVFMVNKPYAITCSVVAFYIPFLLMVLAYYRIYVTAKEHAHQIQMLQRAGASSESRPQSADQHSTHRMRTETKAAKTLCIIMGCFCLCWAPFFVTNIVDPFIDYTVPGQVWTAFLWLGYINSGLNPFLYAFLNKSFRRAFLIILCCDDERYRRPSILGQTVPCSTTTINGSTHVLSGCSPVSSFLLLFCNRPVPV", "test": "Radioligand competition binding, [3H]GR 113808, CHO cell membranes", "description": "Nonspecific binding was determined in the presence of 100 μM serotonin. Following incubation, the same protocol as described above for 5-HT3 binding was employed. The standard reference compound for 5-HT4E binding is serotonin."}, "D2": {"molecular_target": "T3, D2 (Homo sapiens, UniProt P14416)", "T3 construct": "host or cells: HEK-293", "T3 sequence (P14416 1-414 isoform P14416-2)": "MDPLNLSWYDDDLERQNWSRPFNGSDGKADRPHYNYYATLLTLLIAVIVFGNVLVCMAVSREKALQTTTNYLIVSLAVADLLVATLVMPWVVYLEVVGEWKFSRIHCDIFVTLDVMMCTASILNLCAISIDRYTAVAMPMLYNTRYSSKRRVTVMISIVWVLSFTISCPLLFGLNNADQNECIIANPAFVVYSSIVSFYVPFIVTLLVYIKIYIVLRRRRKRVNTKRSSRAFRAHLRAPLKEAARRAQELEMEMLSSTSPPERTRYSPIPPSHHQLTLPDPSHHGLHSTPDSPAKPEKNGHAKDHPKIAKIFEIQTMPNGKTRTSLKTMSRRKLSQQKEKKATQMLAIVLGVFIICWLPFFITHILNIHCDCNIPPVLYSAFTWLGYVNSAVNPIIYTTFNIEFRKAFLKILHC", "test": "Radioligand competition binding, [3H]7-OH-DPAT, HEK-293 cells", "experimental": "(§1) All assays were performed in duplicate (ie, 2 replicates per assay, per standard manufacturer protocol)."}, "D5": {"molecular_target": "T4, D5 (Homo sapiens, UniProt P21918)", "T4 construct": "ProLink enzyme-donor fragment of β-galactosidase (own knowledge of the PathHunter design)", "T4 sequence (P21918 whole entry, the tested form may be a part)": "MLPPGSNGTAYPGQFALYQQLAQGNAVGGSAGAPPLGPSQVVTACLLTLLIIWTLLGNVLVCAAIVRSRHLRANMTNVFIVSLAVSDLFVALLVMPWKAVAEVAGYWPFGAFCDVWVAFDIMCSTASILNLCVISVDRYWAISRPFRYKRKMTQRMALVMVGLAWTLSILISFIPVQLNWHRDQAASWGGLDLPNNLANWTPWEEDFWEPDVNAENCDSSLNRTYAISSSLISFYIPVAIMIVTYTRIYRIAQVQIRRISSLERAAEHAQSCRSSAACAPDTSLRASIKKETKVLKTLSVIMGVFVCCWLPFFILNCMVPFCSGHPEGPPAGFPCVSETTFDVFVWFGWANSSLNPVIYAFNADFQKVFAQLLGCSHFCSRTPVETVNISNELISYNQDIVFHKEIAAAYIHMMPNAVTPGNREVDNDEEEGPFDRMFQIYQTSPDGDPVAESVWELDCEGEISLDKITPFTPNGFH", "test": "Radioligand competition binding, [3H]SCH 23390, GH4 cells", "experimental": "as §1"}, "CXCR7 [1]": {"molecular_target": "T5, CXCR7 (Homo sapiens, UniProt P25106)", "T5 sequence (P25106 whole entry)": "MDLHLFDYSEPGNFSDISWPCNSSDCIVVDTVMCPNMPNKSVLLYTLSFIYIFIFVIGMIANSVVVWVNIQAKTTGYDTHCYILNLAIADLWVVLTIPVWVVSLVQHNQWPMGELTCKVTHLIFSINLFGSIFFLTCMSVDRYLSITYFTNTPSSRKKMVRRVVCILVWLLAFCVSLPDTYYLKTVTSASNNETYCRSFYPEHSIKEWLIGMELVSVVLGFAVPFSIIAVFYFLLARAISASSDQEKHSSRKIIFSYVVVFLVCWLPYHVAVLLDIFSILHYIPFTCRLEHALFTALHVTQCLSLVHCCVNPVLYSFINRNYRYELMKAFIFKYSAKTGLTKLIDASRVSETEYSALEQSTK", "test": "Radioligand binding assay (as worded in the discussion)", "settings": "at concentrations <1.0 μM"}, "5-HT1A": {"test_system": "5-HT1A", "settings": "IV DHE (53 ng/mL); cited from earlier work"}, "5-HT1B": {"test_system": "5-HT1B", "settings": "IV DHE (53 ng/mL); cited from earlier work"}, "5-HT1D [2]": {"test_system": "5-HT1D", "settings": "IV DHE (53 ng/mL); cited from earlier work"}, "5-HT2C": {"test_system": "5-HT2C", "settings": "IV DHE (53 ng/mL); cited from earlier work"}, "5-HT5A": {"test_system": "5-HT5A", "settings": "IV DHE (53 ng/mL); cited from earlier work"}, "5-HT6": {"test_system": "5-HT6", "settings": "IV DHE (53 ng/mL); cited from earlier work"}, "5-HT7": {"test_system": "5-HT7", "settings": "IV DHE (53 ng/mL); cited from earlier work"}, "α-adrenergic1": {"test_system": "α-adrenergic1", "settings": "IV DHE (53 ng/mL); cited from earlier work"}, "α-adrenergic2A": {"test_system": "α-adrenergic2A", "settings": "IV DHE (53 ng/mL); cited from earlier work"}, "α-adrenergic2C": {"test_system": "α-adrenergic2C", "settings": "IV DHE (53 ng/mL); cited from earlier work"}, "D2S": {"test_system": "D2S", "settings": "IV DHE (53 ng/mL); cited from earlier work"}, "D3": {"test_system": "D3", "settings": "IV DHE (53 ng/mL); cited from earlier work"}, "[3]": {"settings": "1 mg of IV DHE, cited from earlier work"}, "[4]": {"settings": "1.0 mg of IV DHE, phase 1 study, cited from earlier work"}, "human 5-HT1B": {"test_system": "human 5-HT1B", "design": "method as in doi:10.1186/1129-2377-14-S1-P75", "settings": "cited from earlier work"}, "5-HT1D [5]": {"test_system": "5-HT1D", "design": "method as in doi:10.1186/1129-2377-14-S1-P75", "settings": "cited from earlier work"}, "5-HT1B/1D receptors": {"test_system": "5-HT1B/1D receptors", "design": "method as in doi:10.1186/1129-2377-14-S1-P75", "settings": "cited from earlier work"}, "CXCR7 [6]": {"molecular_target": "T5, CXCR7", "test": "gpcrMAX PathHunter β-arrestin recruitment, agonist mode", "format": "cell-based", "design": "ProLink enzyme-donor fragment of β-galactosidase (own knowledge of the PathHunter design)", "description": "PathHunter cell lines were expanded from freezer stocks according to standard procedures and cells were seeded in a total volume of 20 μL into white-walled, 384-well microplates in duplicate and incubated at 37°C prior to testing. […] Intermediate dilution (1% vehicle concentration) of sample stocks was performed to generate a 5× sample in assay buffer, of which 5 μL was added to the cells and incubated for 90 or 180 min at 37°C or room temperature, depending on the specific receptor, as established by manufacturer optimization protocols (see Supplementary Table 1). For antagonist activity, cells were preincubated with an antagonist for 30 min, followed by an agonist challenge at 80% of the maximal effective concentration (EC80). Intermediate dilution of sample stocks was performed to generate 5× sample in assay buffer, of which 5 μL was added to cells and incubated at 37°C or room temperature for 30 min. […] Microplates were read with a PerkinElmer EnVision (Shelton, CT) instrument for chemiluminescent signal detection.\nMeasurement of agonist and antagonist activity in the assay was calculated as percent activity of relative luminescence units (from positive control). Significance of agonist/antagonist activity was determined based upon prespecified criteria provided by Eurofins DiscoverX. […]"}},
  "note": "“Also recorded” adds a separate entry of the source. Where a name gives a salt, the structure may show the parent alone. Read-outs that look alike come from different tables or passages of the source.",
  "data": [
    {"smiles": "CN1C[C@H](C(=O)N[C@]2(C)O[C@@]3(O)[C@@H]4CCCN4C(=O)[C@H](Cc4ccccc4)N3C2=O)C[C@@H]2c3cccc4[nH]cc(c34)C[C@H]21", "note": "[DHE, Dihydroergotamine mesylate]", "values": [
      {"measurement": "IC50", "setting": "human 5-HT3 receptor", "result": "> 0.3", "unit": "µM"},
      {"measurement": "binding to the 5-HT3 receptor", "setting": "human 5-HT3 receptor; at concentrations up to 300 nM", "result": "did not bind; also recorded: did not exhibit binding"},
      {"measurement": "IC50", "setting": "human 5-HT4E receptor", "result": 0.23, "unit": "µM"},
      {"measurement": "IC50", "setting": "D2", "result": 0.00047, "unit": "µM"},
      {"measurement": "IC50", "setting": "D5", "result": 0.37, "unit": "µM"},
      {"measurement": "DHE binding/activity at CXCR7", "setting": "CXCR7 [1]", "result": "Additional notes • Radioligand binding assays reported here did not show DHE binding at concentrations <1.0 μM; therefore, agonist activity of DHE on CXCR7 is unlikely in clinically relevant conditions"},
      {"measurement": "receptor radioligand binding (active binding)", "setting": "5-HT1A", "result": "X (An X denotes active binding)"},
      {"measurement": "receptor radioligand binding (active binding)", "setting": "5-HT1B", "result": "X (An X denotes active binding)"},
      {"measurement": "receptor radioligand binding (active binding)", "setting": "5-HT1D [2]", "result": "X (An X denotes active binding)"},
      {"measurement": "receptor radioligand binding (active binding)", "setting": "5-HT2C", "result": "X (An X denotes active binding)"},
      {"measurement": "receptor radioligand binding (active binding)", "setting": "5-HT5A", "result": "X (An X denotes active binding)"},
      {"measurement": "receptor radioligand binding (active binding)", "setting": "5-HT6", "result": "X (An X denotes active binding)"},
      {"measurement": "receptor radioligand binding (active binding)", "setting": "5-HT7", "result": "X (An X denotes active binding)"},
      {"measurement": "receptor radioligand binding (active binding)", "setting": "α-adrenergic1", "result": "X (An X denotes active binding)"},
      {"measurement": "receptor radioligand binding (active binding)", "setting": "α-adrenergic2A", "result": "X (An X denotes active binding)"},
      {"measurement": "receptor radioligand binding (active binding)", "setting": "α-adrenergic2C", "result": "X (An X denotes active binding)"},
      {"measurement": "receptor radioligand binding (active binding)", "setting": "D2S", "result": "X (An X denotes active binding)"},
      {"measurement": "receptor radioligand binding (active binding)", "setting": "D3", "result": "X (An X denotes active binding)"},
      {"measurement": "maximum plasma concentration (Cmax)", "setting": "[3]", "result": 53, "unit": "ng/mL"},
      {"measurement": "Cmax", "setting": "[3]; read-out: maximum plasma concentration (Cmax)", "result": "~91", "unit": "nM"},
      {"measurement": "Human plasma Cmax", "setting": "[4]", "result": 14.2, "unit": "ng/mL"},
      {"measurement": "Cmax", "setting": "[4]; read-out: Human plasma Cmax", "result": "~24", "unit": "nM"},
      {"measurement": "dissociation half-life", "setting": "human 5-HT1B", "result": 1.38, "unit": "h"},
      {"measurement": "dissociation half-life", "setting": "5-HT1D [5]", "result": 1.28, "unit": "h"},
      {"measurement": "time bound to the receptors longer than sumatriptan", "setting": "5-HT1B/1D receptors; 5-HT1B and 5-HT1D", "result": "8 to 14", "unit": "h"},
      {"measurement": "dissociation half-lives, times longer than those of sumatriptan", "setting": "5-HT1B/1D receptors; human 5-HT1B and 5-HT1D", "result": "approximately 10 times"},
      {"measurement": "EC50", "setting": "CXCR7 [6]", "result": 6, "unit": "µM"},
      {"measurement": "DHE activity (screening)", "setting": "CXCR7 [6]; 10 μM, >30% activity = agonist", "result": "Agonist"}
    ]}
  ]
}
